Legend:
[1] = test system: methicillin-resistant Staphylococcus aureus (MRSA) strain NCTC 10442; experiment: Viability (killing) of MRSA treated with L-lactate and Coumarin; format: cell-based
[2] = test system: E. coli O157:H7 strain NCTC 12900; experiment: Growth inhibition monitored by spectrophotometer (650 nm); format: cell-based, Escherichia coli O157:H7; settings: 37° C.; for growth compared to the control (FIG. 13B): 0.625 mM Coumarin, 18 mM L-lactate; for growth compared to the control (FIG. 13A): 12.5 mM L-lactate, 1.25 mM esculetin
[3] = test system: Salmonella enteritidis NCTC 4444; experiment: Viability (killing) of S. enteritidis treated with L-lactate and Coumarin; format: cell-based
[4] = test system: Listeria monocytogenes NCTC 11994; experiment: Viability (killing) of L. monocytogenes treated with L-lactate and Coumarin; format: cell-based
[5] = test system: 8 E. coli O157:H7 strains and 8 non-O157:H7 E. coli strains; format: cell-based
[6] = test system: L. monocytogenes; experiment: Growth inhibition monitored by spectrophotometer (650 nm); format: cell-based, Listeria monocytogenes; settings: 1.25 mM Coumarin; L-lactate concentration not given
[7] = test system: S. aureus; experiment: as above; format: cell-based, Staphylococcus aureus; settings: Coumarin 1.25 mM, L-lactate 5 mM
[8] = test system: S. enteritidis; experiment: as above; format: cell-based, Salmonella enteritidis; settings: Coumarin 2 mM; L-lactate concentration not given
[9] = test system: E. coli O157:H7 strain NCTC 12900; format: cell-based, Escherichia coli O157:H7; settings: for effect on viability of single compounds (FIG. 6A-C): L-lactate 50 mM or coumarin 7.5 mM alone; for dose dependence of inactivation (FIG. 1): L-lactate 50-200 mM, D-lactate 100-200 mM; for effect on viability of single compounds (FIG. 7A): citrate 50 mM or esculetin 7.5 mM alone

Compound: O=c1ccc2ccccc2o1 [Coumarin, 1,2 benzopyrone]
- effect on viability (FIG. 11D) ([1]; Coumarin 6.8 mM alone): had no effect on the viability
- growth compared to the control (FIG. 13B) [2]: only slightly reduced the extent of growth
- effect on viability (FIG. 11B) ([3]; Coumarin 6.8 mM alone): had no effect on the viability
- effect on viability (FIG. 8A) ([3]; Coumarin 10 mM alone, pH 3.8): did not affect the viability
- effect on viability (FIG. 11C) ([4]; Coumarin 6.8 mM alone): had no effect on the viability
- effect on viability (FIG. 8B) ([4]; Coumarin 10 mM alone, pH 3.8): had no effect on viability
- survival (FIG. 10) [5]: had little effect on the survival
- growth (FIG. 13D) [6]: did not affect the growth of L. monocytogenes
- growth (FIG. 13E) [7]: inhibited
- growth (FIG. 13C) [8]: inhibited the growth of S. enteritidis slightly
- effect on viability (FIG. 11A) ([9]; Coumarin 6.8 mM alone): had no effect on the viability
- effect on viability of single compounds (FIG. 6A-C) ([9]; 37° C., pH 3.8): neither 7.5 mM Coumarin (FIG. 6B) nor 7.5 mM umbelliferone (FIG. 6C) affected viability

Compound: C[C@@H](O)C(=O)O [D-lactate, reference compound]
- dose dependence of inactivation (FIG. 1) ([9]; pH 3.8, 37° C.): dose-dependent

Compound: O=C(O)c1ccccc1 [benzoate]
- reduction in numbers / viability (FIG. 7A, 7B) ([9]; citrate 50 mM, benzoate 25 mM, esculetin 7.5 mM, 8 hours, pH 3.8): approximately 4 log10 units

Compound: O=C(O)CC(O)(CC(=O)O)C(=O)O [citrate]
- effect on viability of single compounds (FIG. 7A) ([9]; pH 3.8): neither citrate (50 mM) nor esculetin (7.5 mM) when used individually affected the viability

Compound: O=c1ccc2cc(O)c(O)cc2o1 [esculetin]
- growth compared to the control (FIG. 13A) [2]: caused a small reduction in the growth
- effect on viability of single compounds (FIG. 7A) ([9]; pH 3.8): neither citrate (50 mM) nor esculetin (7.5 mM) when used individually affected the viability

Compound: COc1cc2ccc(=O)oc2cc1O [scopoletin]
- effect on viability of single compounds (FIG. 6A-C) ([9]; 37° C., pH 3.8): neither L-lactate (50 mM) nor scopoletin (7.5 mM) on their own affected the viability

Compound: O=c1ccc2ccc(O)cc2o1 [umbelliferone]
- effect on viability of single compounds (FIG. 6A-C) ([9]; 37° C., pH 3.8): neither 7.5 mM Coumarin (FIG. 6B) nor 7.5 mM umbelliferone (FIG. 6C) affected viability

Compound: L-lactate
- reduction in viability (FIG. 8C) ([1]; L-lactate 50 mM, Coumarin 10 mM, 8 hours, pH 3.8): greater than 3 log10 units
- reduction in viability (FIG. 11D) ([1]; L-lactate 2%, Coumarin 6.8 mM, 60 minutes): approximately 2 log10 units
- growth compared to the control (FIG. 13B) [2]: inhibited substantially
- growth compared to the control (FIG. 13A) [2]: caused a small reduction in the growth
- reduction in viability (FIG. 8B) ([4]; L-lactate 50 mM alone, 8 hours, pH 3.8): greater than 5 log10 units
- inactivation (percentage survival), L-lactate versus D-lactate (FIG. 3) ([5]; pH 3.8): much greater than that of D-lactate for all the E. coli strains tested
- growth (FIG. 13D) [6]: inhibited growth slightly
- growth (FIG. 13E) [7]: inhibited
- antimicrobial effect, L-lactate versus D-lactate (FIG. 2) ([9]; 100 mM each, pH 3.8, 37° C.): exerted a greater antimicrobial effect than 100 mM D-lactate
- effect on viability of single compounds (FIG. 6A-C) ([9]; 37° C., pH 3.8): neither L-lactate (50 mM) nor scopoletin (7.5 mM) on their own affected the viability
- decrease in viability (FIG. 11A) ([9]; L-lactate 2%, Coumarin 6.8 mM, 10 minutes): approximately 3 log10 units
- effectiveness at reducing numbers, L-lactate versus D-lactate (FIG. 1) ([9]; L-lactate 50, 100, 150 or 200 mM, D-lactate 100, 150 or 200 mM, pH 3.8, 37° C.): more effective at reducing numbers of the E. coli O157:H7 strain NCTC 12900 than D-lactate at all concentrations measured
- dose dependence of inactivation (FIG. 1) ([9]; pH 3.8, 37° C.): dose-dependent
